Measurements from patent publication EP0885006B1, “PHARMACEUTICAL COMPOSITION ENABLING TO INHIBIT CANCER METASTASIS FORMATION CONTAINING N-ACETYL-CYSTEINE AND DOXORUBICIN” (ZAMBON GROUP S.p.A., priority 1996, dated 1997).
Values joined by “and” are separate entries in the source; they are usually repeats but may differ in a detail not shown here. Equal entries are not always repeated.

Tested on: B16-BL6 murine melanoma cells
Experiment: Tumorigenicity and "spontaneous" metastasis assay (s.c. footpad injection of cancer cells)
Assay type: in vivo, female C57BL/6 mice
Conditions: for Survival (days) (mean ± ES) / Lung metastases Frequency (%) / Lung metastases No. (mean ± ES) / Primary tumors Frequency (%) / Primary tumors Weight g (mean ± ES) / Local recurrencies Frequency (%) / Local recurrencies Weight g (mean ± ES): DOX+NAC same doses; for reduction in the number of lung metastases with respect to controls / reduction in the weight of primary tumors with respect to controls / weight of primary tumors 4 weeks after injection of cancer cells (effect in words) / reduction in the weight of local recurrencies with respect to controls: combined same doses
Method: DOX was used in the form of commercial injectable product, containing 10 mg of drug per vial (Adriblastina®, Farmitalia - Carlo Erba, Milano, Italia), to be dissolved in distilled water when injected. In the experiments wherein the oral administration was provided, NAC was used in the form of commercial product containing 200 mg of NAC per dosage (Fluimucil®, Zambon Italia, Vicenza), directly dissolved in the drinking water of mice. In the experiments wherein the parenteral (i.p. or i.v.) administration of NAC was foreseen, a 98% pure laboratory reagent (Sigma Chemical Co., St. Louis, MO, U.S.A.) was used, dissolved in a phosphate buffer (PBS), pH 7.4, and furtherly brought to neutrality with NaOH 0.1 N ("spontaneous" metastasis assays) or in NaCl 0.15 M, taking the solution to pH 7.0 (experimental metastasis assays).
A total of 385 adult mice was used (Charles River, Calco, Como, Italia) of which 196 female nude (CD-1)BR mice, aged 7 weeks, average weight of 25 g and 189 female C57BL/6 mice aged 6-8 weeks, average weight of 20 g, used in the experimental metastasis assays and in those of "spontaneous" metastases respectively. The (CD-1)BR mice were housed in sterile cages with filtering cover, in a number of 3 animals per cage, at a room temperature of 26-28°C, with a relative humidity of 55%, a ventilation accounting for 12-15 air/h renewals and a 12 hours day/night cycle; the C57BL/6 mice were stabulated in a number of 5 animals per cage, at a temperature of 25-27°C, with a relative humidity of 50% and a 12 hours day/night cycle. The (CD-1)BR mice received a special diet sterilized under vacuum (Mucedola S.r.L, Settimo Milanese, Milano, Italia) and sterilized drinking water; the C57BL/6 mice received a standard rodent diet (MIL Topi e Ratti, Morini, S. Polo d'Enza, Reggio Emilia, Italia) and drinking water ad libitum throughout the duration of the experiments. Within the experiments wherein the sacrifice of mice was foreseen at a scheduled time, killing was carried out by means of ethyl ether anaesthesia and subsequent cervical dislocation. The stabulation and all the animal treatments were carried out in accordance with the national and Community guidelines (D.L. 27.01.1992 N. 116; 86/609/EEC Directive).
In this kind of experiment, B16-BL6 murine melanoma cells were injected s.c. in the footpad of the right hind leg (5 x 10^5 cells/mouse in experiment #5, 2 x 10^5 cells/mouse in experiments #6, #7 and #8).
With such a technique a primary tumor is formed in the side of injection, from which starts the spread of metastases to the lungs.
Also in these experiments 4 groups were taken into consideration. In all the experiments NAC was administered with drinking water, at a dose of 2 g/kg body weight, starting 48-72 hours before injection of cancer cells and continuing until the end of each experiment. In experiment #5 DOX was administered by i.p. route (2 mg/kg body weight), 24 hours after injection of cancer cells. In experiments #6, #7 and #8 DOX was instead administered by i.v. route (10 mg/kg body weight), 24 hours (#6 and #7) or 7 days (#8) after injection of cancer cells.
In experiments #5, #7 and #8 mice were maintained until spontaneous death, so as to have indications also about the effect of treatment on survival. Both the primary tumors (frequency and weight) and the lung metastases (frequency and number) were therefore evaluated at the time of death.
In experiment #6 instead, 4 weeks after injection of the cancer cells, the leg carrying the primary tumor was removed. Further 4 weeks later the animals were killed, the tumors which gave recurrencies in the leg stump were excised and weighed, and the lung metastases were scored.
Four additional experiments, two of which partially overlapping (#7 and #8) were designed in order to evaluate the effects of NAC and DOX, individually or in combination, on the formation of local primary tumors and on the subsequent spread of lung metastases. […]

[1] = experiment #5, 5 x 10^5 cells/mouse, DOX 2 mg/kg i.p. +24h, NAC 2 g/kg p.o. -48 h/end
[2] = experiment #5, 5 x 10^5 cells/mouse, DOX 2 mg/kg i.p. +24h, NAC 2 g/kg p.o. -48 h/end, at spontaneous death
[3] = experiment #5, DOX 2 mg/kg i.p. +24 h, NAC 2 g/kg p.o.
[4] = experiment #6, 2 x 10^5 cells/mouse, DOX 10 mg/kg i.v. +24h, NAC 2 g/kg p.o. -48 h/56 days, leg removed 4 weeks after cells
[5] = experiment #6, 2 x 10^5 cells/mouse, DOX 10 mg/kg i.v. +24h, NAC 2 g/kg p.o. -48 h/56 days, sacrifice at 8 weeks
[6] = experiment #6, DOX 10 mg/kg +24 h, NAC 2 g/kg p.o.
[7] = experiment #6, DOX 10 mg/kg +24 h, NAC 2 g/kg p.o., 4 weeks
[8] = experiment #6, DOX 10 mg/kg +24 h, NAC 2 g/kg p.o., 8 weeks
[9] = experiment #7 (NAC group common to #7/8), DOX 10 mg/kg i.v. +24 h, NAC 2 g/kg p.o.
[10] = experiment #7, 2 x 10^5 cells/mouse, DOX 10 mg/kg i.v. +24h, NAC 2 g/kg p.o. -72 h/end
[11] = experiment #7, 2 x 10^5 cells/mouse, DOX 10 mg/kg i.v. +24h, NAC 2 g/kg p.o. -72 h/end, at spontaneous death
[12] = experiment #8, 2 x 10^5 cells/mouse, DOX 10 mg/kg i.v. +7 gg. (7 days), NAC 2 g/kg p.o. -72 h/end
[13] = experiment #8, 2 x 10^5 cells/mouse, DOX 10 mg/kg i.v. +7 gg. (7 days), NAC 2 g/kg p.o. -72 h/end, at spontaneous death

| SMILES | Survival (days) (mean ± ES) [1] | Lung metastases Frequency (%) [2] | Lung metastases No. (mean ± ES) [2] | Primary tumors Frequency (%) [2] | Primary tumors Weight g (mean ± ES) [2] | weight of primary tumors (effect in words) [3] | reduction in the number of lung metastases with respect to controls [3] | reduction in the weight of primary tumors with respect to controls [3] | Primary tumors Frequency (%) [4] | Primary tumors Weight g (mean ± ES) [4] | Local recurrencies Frequency (%) [5] | Local recurrencies Weight g (mean ± ES) [5] | Lung metastases Frequency (%) [5] | Lung metastases No. (mean ± ES) [5] | weight of primary tumors 4 weeks after injection of cancer cells (effect in words) [6] | reduction in the weight of primary tumors with respect to controls [7] | reduction in the number of lung metastases with respect to controls [8] | reduction in the weight of local recurrencies with respect to controls [8] | reduction in the number of lung metastases with respect to controls [9] | Survival (days) (mean ± ES) [10] | other results |
| --- | --- | --- | --- | --- | --- | --- | --- | --- | --- | --- | --- | --- | --- | --- | --- | --- | --- | --- | --- | --- | --- |
| COc1cccc2c1C(=O)c1c(O)c3c(c(O)c1C2=O)C[C@@](O)(C(=O)CO)C[C@@H]3O[C@H]1C[C@H](N)[C@H](O)[C@H](C)O1 [DOX, Doxorubicin] | 31.2 ± 4.7 days | 100.0% | 10.0 ± 6.4 No. | 100.0% | 3.0 ± 1.3 g | did not decrease to a significant extent | 6 fold and 6.0 fold | 1.3 fold | 92.3% | 0.21 ± 0.05 g | 69.2% | 2.2 ± 0.7 g | 75.0% | 32.6 ± 12.2 No. | not affected | 1.4 fold | 0.7 fold | 1.1 fold | 0.9 fold | 51.3 ± 1.9 days | Lung metastases Frequency (%) [11]: 76.9%; Lung metastases No. (mean ± ES) [11]: 23.0 ± 10.0 No.; Primary tumors Frequency (%) [11]: 100.0%; Primary tumors Weight g (mean ± ES) [11]: 2.2 ± 0.6 g; survival (effect in words) (experiment #7, DOX 10 mg/kg i.v. 24 hours after injection of cancer cells): prolonged survival; Survival (days) (mean ± ES) [12]: 49.0 ± 2.8 days; Lung metastases Frequency (%) [13]: 63.6%; Lung metastases No. (mean ± ES) [13]: 12.6 ± 9.0 No.; Primary tumors Frequency (%) [13]: 100.0%; Primary tumors Weight g (mean ± ES) [13]: 2.3 ± 0.6 g; survival curves and mean survival time (effect in words) (experiment #8, DOX 10 mg/kg i.v. 7 days after injection of cancer cells, NAC 2 g/kg p.o.): did not affect the survival curves nor the mean survival time |
| CC(=O)N[C@@H](CS)C(=O)O [NAC, N-acetyl-cysteine] | 32.2 ± 2.5 days | 83.3% | 8.3 ± 6.8 No. | 100.0% | 1.9 ± 0.4 g | more than halved | 7.2 fold | 2.1 fold | 93.3% | 0.28 ± 0.04 g | 53.3% | 2.8 ± 0.8 g | 45.5% | 12.9 ± 7.8 No. | not affected | 1.0 fold | 1.6 fold | 0.9 fold | 2.1 fold | 60.1 ± 3.7 days | Lung metastases Frequency (%) [11]: 18.2%; Lung metastases No. (mean ± ES) [11]: 9.5 ± 8.3 No.; Primary tumors Frequency (%) [11]: 100.0%; Primary tumors Weight g (mean ± ES) [11]: 1.9 ± 0.6 g; Survival (days) (mean ± ES) [12]: 60.1 ± 3.7 days; Lung metastases Frequency (%) [13]: 18.2%; Lung metastases No. (mean ± ES) [13]: 9.5 ± 8.3 No.; Primary tumors Frequency (%) [13]: 100.0%; Primary tumors Weight g (mean ± ES) [13]: 1.9 ± 0.6 g; inhibition in the frequency of lung metastases with respect to controls (experiments #7/8, NAC 2 g/kg p.o.): 4.8 fold; survival of mice (effect in words) (experiments #7 and #8, NAC 2 g/kg p.o., DOX 10 mg/kg i.v. +24 h or +7 days): enhanced remarkably the survival |
